The values that follow come from ChEMBL document CHEMBL1201862, “PubChem BioAssay data set” (2004).

Among the test systems are M19-MEL; DLD-1; MDA-N; Hs-578T; DU-145; PC-3; 786-0; RXF 631; LXFL 529.
Holding throughout (assay): NCI-60 cell line screen, 48 h

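In this assay, cells in 96-well plates receive the compound at five concentrations for 48 hours. Endpoints are linearly interpolated between the surrounding concentrations. GI50 is the concentration that inhibits growth by half.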 Activity calls are given as the source filed them. No stated cut-off is given here; in the data, active = GI50 up to about 1.1 µM and inactive = higher. Non-standard residues stand in square brackets, D forms with d. Residues, ends and D or L forms follow the SMILES beside them. ξ: configuration not given here. Pen = CC(C)(S)[C@H](N)C(=O)O; ξL = CC(C)CC(N)C(=O)O Where only a bound is given, the exact number is not on record here.

With `CCCCCCSc1nc(N)nc2nc[nH]c12`, the GI50 was 47.1 µM (inactive) with M19-MEL and 33.7 µM (inactive) with DLD-1.

For `CN(C1=NCCO1)c1cccc2ccccc12`, the GI50 in the experiment with MDA-N, in the experiment on Hs-578T, in the experiment on DU-145 and with PC-3 was > 10 µM (inactive) each time.

With `Cc1cc(O)c2c(c1O)C(=O)C13C(=C(O)C4C(O)C1C1C(O)C3C(O)=C3C(=O)c5c(O)cc(C)c(O)c5C(=O)C341)C2=O` (configuration not stated), the GI50 was 0.0545 µM (active) in the experiment on M19-MEL and 0.0455 µM (active) in the experiment on DLD-1.

Consider `C=CCc1cccc2cc(C(=O)Nc3ccc(C)cc3)c(=N)oc12`, for which the GI50 in the experiment on 786-0, in the experiment on MDA-N, with Hs-578T, in the experiment with DU-145 and in the experiment on PC-3 was > 100 µM (inactive) each time.

On to `CCOC(=O)/C=C/c1c[nH]c(C(=O)OCC)c1`, for which the GI50 with M19-MEL and with DLD-1 was > 100 µM (inactive) in each case.

Turning to `COc1ccc2c(c1)c1c(n2CCN(C)C)-c2ccccc2CC1`, the GI50 in the experiment on 786-0 was 16.1 µM (inactive); in the experiment with MDA-N, 16 µM (inactive); in the experiment with Hs-578T it was 17.6 µM (inactive); in the experiment on DU-145, 15.9 µM (inactive); in the experiment on PC-3, 12.6 µM (inactive).

Take `Cc1ccnc2nc(N)ccc12`: the GI50 with 786-0, in the experiment on MDA-N, in the experiment on Hs-578T, with DU-145 and in the experiment with PC-3 was > 100 µM (inactive) in each case.

Turning to `C[n+]1[se]c2ccccc2c1Cl`, the GI50 in the experiment on 786-0 is > 45 µM (inactive); with RXF 631, 25.1 µM (inactive); in the experiment with M19-MEL, 10.3 µM (inactive); in the experiment with DLD-1 it was 25.7 µM (inactive); with LXFL 529, 28.1 µM (inactive).

Take `O=C1C2C3C=C4c5ccccc5N(c5ccccc5)C4(C2C(=O)N1Cc1ccccc1)C1C(=O)N(Cc2ccccc2)C(=O)C31` (configuration not stated): the GI50 is > 100 µM (inactive) in the experiment with 786-0; > 100 µM (inactive) with RXF 631; 70.3 µM (inactive) in the experiment with M19-MEL; > 100 µM (inactive) in the experiment on DLD-1; > 100 µM (inactive) in the experiment with LXFL 529.

Turning to `CN(C)CCNC(=O)c1cc(Cl)cc2cc3ccccc3nc12`, the values for the GI50 in the experiment with M19-MEL and in the experiment with DLD-1 were 1.3 µM (inactive) and 0.652 µM (active), respectively.

On to `Cc1cc(=O)n2nc(CCl)sc2n1`, for which the GI50 is 15.7 µM (inactive) in the experiment on 786-0; 14 µM (inactive) in the experiment with MDA-N; 17 µM (inactive) in the experiment with Hs-578T; 18.1 µM (inactive) with DU-145; 13.3 µM (inactive) in the experiment on PC-3.

With `C=CC1(c2ccccc2Cl)N/C(=C/OCC)CO1` (configuration not stated), the GI50 in the experiment on 786-0 was 51.5 µM (inactive); with RXF 631 it was > 100 µM (inactive); in the experiment on M19-MEL, > 100 µM (inactive); with DLD-1, 33.5 µM (inactive); in the experiment on LXFL 529, > 100 µM (inactive).

Turning to `CSCC[C@H](NC(=O)C(CC(C)C)NC(=O)[C@H](Cc1c[nH]cn1)NC(=O)CNC(=O)[C@@H](NC(=O)[C@@H](C)NC(=O)[C@H](Cc1c[nH]c2ccccc12)NC(=O)[C@H](CCC(N)=O)NC(=O)[C@@H](N)CC(N)=O)C(C)(C)SC)C(N)=O` (some centres not stated) (H-NQW[dA][Pen](Me)GH[ξL]M-NH2), the GI50 with M19-MEL and in the experiment with DLD-1 was > 100 µM (inactive) throughout.

Regarding `Cc1ccc2c3c1[C@@H]1O[C@@H]1c1cccc(c1-3)[C@@H]1O[C@H]21`, the GI50 is 14.4 µM (inactive) in the experiment on MDA-N, 21.3 µM (inactive) in the experiment on Hs-578T, 11 µM (inactive) with DU-145 and 15 µM (inactive) in the experiment on PC-3.

For the compound `Cc1cc(=O)nc(S(=O)(=O)NC(=S)Nc2ccc(Cl)cc2)[nH]1`, the GI50 in the experiment with 786-0, in the experiment with MDA-N, in the experiment with Hs-578T, in the experiment with DU-145 and in the experiment with PC-3 was > 100 µM (inactive) in each case.

For `O=C(OCc1ccccc1)OOC(=O)OCc1ccccc1`, the GI50 with M19-MEL, with DLD-1 and with LXFL 529 was > 100 µM (inactive) in each case.

For `Cc1cccc(C)c1NC(=O)Nc1ccc(S(N)(=O)=O)cc1`, the GI50 in the experiment on 786-0, in the experiment with MDA-N, in the experiment on Hs-578T, in the experiment on DU-145 and in the experiment with PC-3 was > 100 µM (inactive) each time.

Regarding `COc1c2c(cc3c(CCc4ccccc4)cc(=O)oc13)CCC(C)(C)O2`, the GI50 in the experiment on M19-MEL, in the experiment with DLD-1 and in the experiment on LXFL 529 was > 100 µM (inactive) each time.

Consider `COC(=O)C(/C(=N/NC(N)=S)C(=O)Nc1ccccc1[N+](=O)[O-])c1cnc2ccccc2n1` (configuration not stated), for which the GI50 in the experiment on 786-0, in the experiment on RXF 631, with M19-MEL, in the experiment with DLD-1 and with LXFL 529 was > 100 µM (inactive) in each case.

As to `CC=C/C=C/[C@@H]1O[C@](O)([C@H](CC)C(=O)NC/C=C/C=C(\C)[C@@H](OC)[C@@H](C)[C@@H]2O[C@H](/C=C/C=C/C=C(\C)C(=O)c3c(O)cc[nH]c3=O)[C@H](O)[C@@H]2O)[C@H](O)[C@H](O)C1(C)C`, the GI50 is 43.4 µM (inactive) in the experiment on Hs-578T and > 100 µM (inactive) with PC-3.

In the case of `COC(=O)C1C(O)C(C)C(O)C(C)(O)/C=C\C=C(C)C(=O)Nc2c(C)c(OC(C)=O)c3c(c2O)C(=O)C(C)=C2OCOC(=C23)C(C)=CC(C)(O)C(O)C(C)C1OC(C)=O` (configuration not stated), the GI50 in the experiment on M19-MEL is 17.3 µM (inactive); in the experiment with DLD-1, 24.7 µM (inactive).

For the compound `C[S+](C)CC1OC(n2cnc3c(N)ncnc32)C(O)C1O` (configuration not stated), the GI50 with M19-MEL is > 179 µM (inactive); in the experiment on DLD-1, > 225 µM (inactive).

Regarding `CCOC(=O)C(=O)NC12CC3CC(CC(C3)C1)C2`, the GI50 with RXF 631, with DLD-1 and with LXFL 529 was > 100 µM (inactive) each time.

Regarding `O=C1C=C/C(=C/[C@H]2SSC=C[C@]23C=CC(=O)C3)C1`, the GI50 with 786-0 was 7.55 µM (inactive); in the experiment on MDA-N, 17.5 µM (inactive); in the experiment with Hs-578T, 10.8 µM (inactive); in the experiment with DU-145 it was 20.2 µM (inactive); in the experiment on PC-3, 24.7 µM (inactive).

As to `CCOC(=O)C1=NN(c2ccc(Cl)cc2)C2=CC(C)=NN(C)C(=S)N21`, the GI50 with MDA-N was > 100 µM (inactive); in the experiment with Hs-578T, 27.5 µM (inactive); in the experiment with DU-145, 79.3 µM (inactive); in the experiment on PC-3, > 100 µM (inactive).

Consider `CN(C)CCOc1cc2c(c3ccccc13)-c1ccccc1C2=O`, for which the figures for the GI50 with M19-MEL and with DLD-1 were 1.35 µM (inactive) and 1.15 µM (inactive), respectively.

As to `CN(C)C(=O)C(F)(F)C(c1ccc(Br)cc1)C1C(=O)N(C)C(=O)N(C)C1=O` (configuration not stated), the GI50 in the experiment with 786-0, in the experiment on DU-145 and with PC-3 was > 100 µM (inactive) each time.

In the case of `c1ccc(OCc2nnc(CCCCCCCCc3nnc(COc4ccccc4)o3)o2)cc1`, the GI50 in the experiment on 786-0 is 47.5 µM (inactive); in the experiment on MDA-N, > 100 µM (inactive); with DU-145, > 100 µM (inactive); in the experiment on PC-3 it was > 100 µM (inactive).

Regarding `O=C(CC/C=C(/CS(=O)(=O)c1ccccc1)S(=O)(=O)c1ccccc1)c1ccccc1`, the GI50 in the experiment on DLD-1 is > 100 µM (inactive).

With `Cc1ccc(C(=O)Cc2nc3c([nH]c2=O)c(C)nn3-c2ccccc2)c(C)c1`, the GI50 with 786-0 was 3.55 µM (inactive); in the experiment on MDA-N it was > 10 µM (inactive); in the experiment on Hs-578T, > 10 µM (inactive); with DU-145 it was > 10 µM (inactive); in the experiment on PC-3 it was > 10 µM (inactive).

Turning to `O=C(O)c1ccc(C(=O)O)c2c(C(=O)O)ccc(C(=O)O)c12`, the GI50 in the experiment on 786-0, in the experiment on MDA-N, in the experiment on Hs-578T, in the experiment with DU-145 and with PC-3 was > 100 µM (inactive) in each case.

For the compound `CC[C@H]1CN2CCc3cc(OC)c(OC)cc3[C@@H]2C[C@@H]1C[C@H]1NCCc2cc(O)c(OC)cc21`, the values for the GI50 with M19-MEL and in the experiment on DLD-1 were 0.0253 µM (active) and 0.0277 µM (active), respectively.

For the compound `O=C(O)C(F)(F)C(F)(F)C(F)(F)C(F)(F)C(F)(F)C(F)(F)C(F)(F)C(F)(F)F`, the GI50 in the experiment on 786-0 is 83.9 µM (inactive); in the experiment on MDA-N, 40.4 µM (inactive); in the experiment on Hs-578T, 29.9 µM (inactive); with DU-145, 47.6 µM (inactive); in the experiment with PC-3, 42.1 µM (inactive).

Take `CN1C(=O)CC(=O)N1/C(=C/c1ccccc1)c1ccccc1`: the GI50 in the experiment on MDA-N was > 100 µM (inactive); in the experiment on Hs-578T, 28.2 µM (inactive); with DU-145 it was > 100 µM (inactive); in the experiment on PC-3 it was 32 µM (inactive).

Consider `CC(=C(c1ccccc1)c1ccccc1)N1C(=O)CC(=O)N1C`, for which the GI50 is 48.3 µM (inactive) with MDA-N, 20.3 µM (inactive) with Hs-578T, > 100 µM (inactive) in the experiment with DU-145 and 21.9 µM (inactive) with PC-3.

Take `CC(=O)OCC1OC(Nc2ncc(-c3ccc(C)cc3)s2)C(OC(C)=O)C(OC(C)=O)C1OC(C)=O` (configuration not stated): the GI50 in the experiment on M19-MEL is 18.8 µM (inactive); in the experiment with DLD-1, 54.1 µM (inactive).

Consider `COC(=O)C(Cc1ccc(N(C)C)cc1)(NC(=O)c1ccccc1)P(=O)(OC)OC` (configuration not stated), for which the GI50 in the experiment on M19-MEL and in the experiment on LXFL 529 was > 100 µM (inactive) throughout.

Consider `C[Si](C)(C)/C(I)=C/CO`, for which the GI50 in the experiment on 786-0 is 37.3 µM (inactive); with RXF 631 it was 26.4 µM (inactive); in the experiment on M19-MEL, 20.8 µM (inactive); in the experiment on LXFL 529 it was 34.6 µM (inactive).

Turning to `O=S1(=O)CC#CC[C@@H](CO)[C@@H](CO)CC#CC1`, the GI50 was > 100 µM (inactive) with 786-0, 47.1 µM (inactive) in the experiment with M19-MEL, > 100 µM (inactive) in the experiment on DLD-1 and 71.3 µM (inactive) with LXFL 529.

For the compound `O=C(O)C(O)Cc1ccccn1` (configuration not stated), the GI50 with Hs-578T, in the experiment on DU-145 and in the experiment on PC-3 was > 100 µM (inactive) each time.
